From patent US20020086281A1, “Detection of neurodegenerative diseases, in vitro screening assays” (priority 1998, published 2002) come the findings set out here.

For assay [1], the system named is LHON 14459 mutation lymphoblasts. Description: Microphysiometry of LHON cells, 14459 mutation. The assay is classed as cell-based, human. The settings on record: LHON 14459 mutation cells compared with control; FIG. 4A-4E. The source says:
(§1) The rate at which cells excrete protons (the acidification rate) is closely linked to the rate at which they convert nutrients to energy. Because energy metabolism is coupled to ATP consumption, any event that perturbs ATP levels, such as receptor activation or calcium influx, causes a change in energy metabolism and, therefore, an alteration in proton excretion. In addition, receptor activation may also directly affect proton excretion by altering Na/H exchange. A typical microphysiometer, such as the Cytosensor™ (Molecular Devices), uses a silicon-based sensor to measure the rate of proton excretion from 10^4-10^6 cells. Cells are contained in a 3 μL flow chamber in aqueous contact with the pH-sensitive surface of a light-sensitive potentiometric sensor. Flow of medium (with low buffering capacity) and test compounds are determined by a series of microprocessor-controlled pumps. The extracellular acidification rate is determined by measuring the decrease in pH that occurs as acidic metabolites accumulate during brief halts in the flow of medium. The degree of stimulation of the basal acidification is calculated and plotted as a per cent of the basal acidification rate. The sensor takes a voltage measurement that is linearly related to pH. Typically, during a 30-60 sec halt in flow, pH will decrease less than 0.1 pH unit. Reproducible and robust responses are obtained to metabolic inhibitors, growth factors and ionophores in lymphoblast lines. Because virtually any manipulation alters proton excretion, it is relatively easy to determine the types of stimuli to which disease cell lines respond abnormally.
(§2) LHON: Previous work at Emory University has identified causative mitochondrial DNA mutations in LHON patients. Well-characterized LHON patient cell lines have been generated and banked. These cell lines have been characterized by molecular genetic, cellular respiration and enzymology studies. The patient cell lines were obtained from the Emory University Clinical Research Center (Emory University, Atlanta, Ga.).
(§3) Patient lymphocytes are immortalized using the technique of Neitzel H, Human Genetics 73:320-326 (1986). In brief, the lymphocytes are removed from the buffy coat layer following Histopaque density separation. […]
(§4) Lymphoblasts are suspended in agarose entrapment solution at a density of 5×10^5 cells/10 μl, then are plated onto chamber inserts, and allowed to solidify for 20 minutes. […] The rate of acidification is calculated as the slope of a linear least squares fit to the relation of pH versus time during the pump's off period. […]

Assay [2] has as its system LHON 3460 mutation lymphoblasts. The experiment in a line: Microphysiometry of LHON cells, 3460 mutation. The assay is classed as cell-based, human. The settings on record: LHON 3460 mutation cells compared with control; FIG. 4A-4E.
Excerpt: as §1, §2, §3, §4

Assay [3] has as its system PC12 cells transfected with two mutant forms of PS1. The format is cell-based, Rat. The settings on record: PC12 cells transfected with mutant presenilin-1; FIG. 2A-2D.
Excerpt: as §1
Rat adrenal pheochromocytoma PC 12 cells were stably transfected with PS1 cDNA cloned behind the CMV promoter in pcDNA3. See, e.g., Lah, J. J. et al., J. Neurosci. […]
as §4

A further assay deals with HD fibroblasts. Description: Microphysiometry of HD cells. The format is cell-based, human. The settings on record: HD cells compared with control cells; FIG. 3.
For the next assay, the system named is PD lymphoblasts. Description: Microphysiometry of PD lymphoblasts. The assay is classed as cell-based, human. The settings on record: PD lymphoblasts compared with controls; FIG. 5A-5D.
Excerpt: as §1, with “abnormally. […]” for “abnormally.”
as §4

For the next assay, the system named is sporadic AD lymphoblasts. The experiment in a line: Microphysiometry (acidification rate) of sporadic AD lymphoblasts. The assay is classed as cell-based, human. The settings on record: sporadic AD lymphoblasts compared with controls; FIG. 1A-1D.
Excerpt: as §1, with “Because virtually any manipulation alters proton excretion, it is relatively easy to determine the types of stimuli to which disease cell lines respond abnormally.” left out
Alzheimer's disease: Lymphoblast cell lines were generated from blood samples obtained from patients followed in the Emory Alzheimer's Disease Center. All patients have been evaluated by detailed neurological and neuropsychometric examinations. […]
as §4

In another assay the test system is control cells. Description: Microphysiometry of control cells, ionomycin response after rotenone. The assay is classed as cell-based, human. The settings on record: control cells exposed to rotenone; FIG. 3.
Excerpt: as §1, with “Cells are contained in a 3 μL flow chamber in aqueous contact with the pH-sensitive surface of a light-sensitive potentiometric sensor.” left out, “The sensor takes a voltage measurement that is linearly related to pH. Typically, during a 30-60 sec halt in flow, pH will decrease less than 0.1 pH unit. Reproducible and robust responses are obtained to metabolic inhibitors, growth factors and ionophores in lymphoblast lines. Because virtually any manipulation alters proton excretion, it is relatively easy to determine the types of stimuli to which disease cell lines respond abnormally.” left out
as §4

Consider `O=C(CC(=O)C(F)(F)F)c1cccs1` [TTFA, Thenoyltrifluoroacetone], for which the “microphysiometric response to the inhibitor or ionophore” value in assay [1] is “no difference between control and patient lymphoblast responses”; in assay [2], “no difference between control and patient lymphoblast responses”.

For `CN(C)C(=O)Nc1ccc(Cl)c(Cl)c1` [diuron], the “microphysiometric response to the inhibitor” value in assay [3] is listed as “similarly depressed response”.

As to `C[C@H](CCC(=O)O)C[C@H](C)C[C@H](C)C(=O)/C=C(\O)[C@H](C)C[C@H](C)C/C=C/[C@@H](C)[C@@H](O)[C@@H](C)[C@@H](O)C[C@@H]1CC[C@@](C)([C@H]2CC[C@@](C)([C@@H](C)O)O2)O1` [ionomycin], in the assay with HD fibroblasts, the “microphysiometric response to the calcium ionophore” value is recorded as “abnormal responses”. In addition, the “microphysiometric response to the inhibitor or ionophore” value in assay [1] and in assay [2] was “abnormal” in each case.

With `O=C(O)CC(=O)O` [malonate], the entries for the “microphysiometric response to the inhibitor” value (in assay [3]; in the assay with PD lymphoblasts) were “normal response” and “do not differ substantially from controls”, respectively. The “microphysiometric response (stimulation of acidification rate) to the inhibitor” value in the assay on sporadic AD lymphoblasts is recorded as “do not differ substantially from controls”.

In the case of `C=C(C)[C@H]1Cc2c(ccc3c2O[C@@H]2COc4cc(OC)c(OC)cc4[C@@H]2C3=O)O1` [rotenone], the “reproduction of the HD-type altered response to ionomycin” value with control cells is recorded as “can be reproduced in control cells”. Also, the “microphysiometric response to the inhibitor” value is given as “similarly depressed response” in assay [3] and “markedly blunted” with PD lymphoblasts. For the same compound, the “microphysiometric response to the inhibitor or ionophore” value in assay [1] was “markedly depressed”; in assay [2], “virtually absent”. Moreover, in the assay with sporadic AD lymphoblasts, the “microphysiometric response (stimulation of acidification rate) to the inhibitor” value is reported as “markedly blunted”.

As to antimycin-A, the “microphysiometric response to the inhibitor” value with PD lymphoblasts is “do not differ substantially from controls”. Moreover, the “microphysiometric response to the inhibitor or ionophore” value in assay [1] and in assay [2] was “markedly depressed” throughout. Further, the “microphysiometric response (stimulation of acidification rate) to the inhibitor” value in the assay on sporadic AD lymphoblasts was “markedly blunted”.
